Earlier results in US20110053879A1, “[…] AND AMRUBICIN TO TREAT LUNG CANCER” (priority 2008, published 2011).

Columns and labels:
[1] = a specific crystalline form (JP 11-222497 A)
human tumor xenografts = conditions: several human tumor xenografts implanted in nude mice
extensive-stage SCLC = conditions: 45 mg/m^2 on days 1 to 3; chemotherapy-naive patients; intent-to-treat analysis
[2] = preclinical studies
stage III or IV non-SCLC = conditions: 45 mg/m^2 on days 1 to 3; chemotherapy-naive patients; intent-to-treat analysis
[3] = phase II trial

CC(=O)[C@]1(N)Cc2c(O)c3c(c(O)c2[C@@H](O[C@H]2C[C@H](O)[C@H](O)CO2)C1)C(=O)c1ccccc1C3=O.Cl [Amrubicin hydrochloride]
heat stability [1]: excellent in heat stability

CC(=O)[C@]1(N)Cc2c(O)c3c(c(O)c2[C@@H](O[C@H]2C[C@H](O)[C@H](O)CO2)C1)C(=O)c1ccccc1C3=O [amrubicin, (7S,9S)-9-Acetyl-9-amino-7-[(2-deoxy-β-D-erythro-pentapyranosyl)oxy]-7,8,9,10-tetrahydro-6,11-dihydroxy-5,12-nephthacenedione]
antitumor activity compared with doxorubicin (human tumor xenografts): more potent antitumor activity than doxorubicin | response rate, extensive-stage SCLC (extensive-stage SCLC): 79% | strength as a DNA intercalator relative to doxorubicin (weaker) (DNA): approximately 1/10 | cardiotoxicity [2]: almost no cardiotoxicity | response rate, stage III or IV non-SCLC (stage III or IV non-SCLC): 25% | grade 3 or 4 anemia [3]: 23.0% | grade 3 or 4 anorexia [3]: 4.9% | grade 3 or 4 leukopenia [3]: 52.5% | grade 3 or 4 nausea/vomiting [3]: 4.9% | grade 3 or 4 neutropenia [3]: 72.1% | grade 3 or 4 thrombocytopenia [3]: 14.8%

CC(O)[C@]1(N)Cc2c(O)c3c(c(O)c2[C@@H](O[C@H]2C[C@H](O)[C@H](O)CO2)C1)C(=O)c1ccccc1C3=O (stereo partly shown) [amrubicinol]
strength as a DNA intercalator relative to doxorubicin (weaker) (DNA): approximately 1/10
